Reference: patent publication US20040176393A1, “Statin-MMP inhibitor combinations” (priority 1998, published 2004)
pIC50: −log10 of the molar value.

Experiments:
Type in all cases: biochemical
[1] = molecular target: MMP-3 (stromelysin) (Homo sapiens, UniProt P08254); assay: thiopeptolide substrate hydrolysis assay, MMP-3; conditions: inhibition of hydrolytic activity of the enzyme, read-out: IC50 MMP3
Procedure: (§1) The assays measure the amount by which a test compound reduces the hydrolysis of a thiopeptolide substrate caused by a matrix metalloproteinase enzyme.
(§2) Thiopeptolide substrates show virtually no decomposition or hydrolysis in the absence of a matrix metalloproteinase enzyme. A typical thiopeptolide substrate commonly utilized for assays is Ac-Pro-Leu-Gly-thioester-Leu-Leu-Gly-OEt. […] Assays are carried out with and without matrix metalloproteinase inhibitor compounds, and the amount of hydrolysis is compared for a determination of inhibitory activity of the test compounds.

[2] = molecular target: T1, MMP-2 (Gelatinase A) (Homo sapiens, UniProt P08253); assay: thiopeptolide substrate hydrolysis assay, MMP-2; conditions: inhibition of hydrolytic activity of the enzyme, read-out: IC50 MMP2
T1 sequence (P08253 110-660): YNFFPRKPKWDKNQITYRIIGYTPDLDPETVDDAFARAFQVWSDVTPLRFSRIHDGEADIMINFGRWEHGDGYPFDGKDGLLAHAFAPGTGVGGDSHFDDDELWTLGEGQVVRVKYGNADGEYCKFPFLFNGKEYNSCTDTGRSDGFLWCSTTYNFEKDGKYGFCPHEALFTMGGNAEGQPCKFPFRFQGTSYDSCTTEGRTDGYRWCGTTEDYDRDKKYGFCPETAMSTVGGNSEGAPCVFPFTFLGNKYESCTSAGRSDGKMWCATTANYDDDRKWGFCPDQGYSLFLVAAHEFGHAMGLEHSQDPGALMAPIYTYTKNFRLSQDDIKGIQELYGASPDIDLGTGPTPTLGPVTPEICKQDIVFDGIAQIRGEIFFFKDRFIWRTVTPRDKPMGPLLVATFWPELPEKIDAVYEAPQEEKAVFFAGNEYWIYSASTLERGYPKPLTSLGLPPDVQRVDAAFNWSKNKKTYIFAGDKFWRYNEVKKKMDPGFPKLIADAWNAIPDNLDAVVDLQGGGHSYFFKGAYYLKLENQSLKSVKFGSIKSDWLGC
Procedure: as §1, §2

[3] = molecular target: T2, MMP-1 (interstitial collagenase) (Homo sapiens, UniProt P03956); assay: thiopeptolide substrate hydrolysis assay, MMP-1; conditions: inhibition of hydrolytic activity of the enzyme, read-out: IC50 MMP1
T2 sequence (P03956 100-469): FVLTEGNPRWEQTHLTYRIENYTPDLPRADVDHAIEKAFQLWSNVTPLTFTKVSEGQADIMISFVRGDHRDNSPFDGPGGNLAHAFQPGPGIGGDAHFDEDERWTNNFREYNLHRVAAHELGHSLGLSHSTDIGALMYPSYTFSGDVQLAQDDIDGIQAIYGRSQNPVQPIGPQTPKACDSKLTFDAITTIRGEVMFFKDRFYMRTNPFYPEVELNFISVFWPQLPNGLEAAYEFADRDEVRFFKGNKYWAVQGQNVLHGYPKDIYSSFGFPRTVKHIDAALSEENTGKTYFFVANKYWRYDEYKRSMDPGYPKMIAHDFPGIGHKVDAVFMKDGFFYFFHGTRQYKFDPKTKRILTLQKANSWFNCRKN
Procedure: as §1, §2

MMP-3 (stromelysin), sequence (P08254 100-477, species assumed): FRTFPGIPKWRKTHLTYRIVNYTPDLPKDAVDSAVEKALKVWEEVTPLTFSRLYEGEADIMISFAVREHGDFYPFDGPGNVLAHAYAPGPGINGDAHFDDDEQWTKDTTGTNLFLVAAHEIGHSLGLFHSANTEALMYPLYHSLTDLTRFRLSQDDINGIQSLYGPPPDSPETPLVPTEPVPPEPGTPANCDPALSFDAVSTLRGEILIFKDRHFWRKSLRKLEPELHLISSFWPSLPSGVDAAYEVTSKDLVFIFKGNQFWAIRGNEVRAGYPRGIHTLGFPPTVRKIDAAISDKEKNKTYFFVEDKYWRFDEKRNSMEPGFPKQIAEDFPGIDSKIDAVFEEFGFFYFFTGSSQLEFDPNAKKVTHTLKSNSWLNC

SMILES	pIC50 [1]	pIC50 [2]	pIC50 [3]
O=C(O)CCC(=O)c1ccc(N2CCN(c3ccccc3)CC2)cc1 [4-Oxo-4-[4-(4-phenyl-piperazin-1-yl)-phenyl]-butyric acid]	6.60	5.80	–
CNC(=O)[C@@H](NC(=O)[C@@H](CC(=O)NO)CC(C)C)C(C)(C)C [RO-31-9790, reference compound]	6.33	8.22	8.26
O=C(O)[C@H](Cc1ccccc1)NS(=O)(=O)c1ccc(-c2ccc(Br)cc2)cc1 [(S)-2-(4′-Bromo-biphenyl-4-sulfonylamino)-3-phenyl-propionic acid]	–	7.59	–
O=C(O)CCC(=NO)c1ccc(-c2ccc(Br)cc2)cc1 [4-(4′-Bromo-biphenyl-4-yl)-4-hydroxyimino-butyric acid]	6.96	7.24	–
O=C(CNS(=O)(=O)c1ccc(N2CCC(c3ccccc3)CC2)cc1)NO [N-Hydroxy-2-[4-(4-phenyl-piperidin-1-yl)-benzene-sulfonylamino]-acetamide]	7.72	6.09	–
N[C@@H](CC(=O)c1ccc2oc3ccccc3c2c1)C(=O)O [(S)-2-Amino-4-dibenzofuran-2-yl-4-oxo-butyric acid]	4.48	5.42	–
CC(C)CC(CC(=O)NO)C(=O)N[C@@H](CC(C)C)C(=O)N[C@@H](Cc1ccccc1)C(N)=O (stereo partly shown) [U24522, reference compound]	7.70	–	–
O=C(O)[C@H](Cc1ccccc1)NS(=O)(=O)c1ccc(N2CCC(c3ccccc3)CC2)cc1 [(S)-3-Phenyl-2-[4-(4-phenyl-piperidin-1-yl)-benzene-sulfonylamino]-propionic acid]	7.85	6.66	–
CC(C)[C@H](NS(=O)(=O)c1ccc(-c2ccc([N+](=O)[O-])cc2)cc1)C(=O)O [(S)-3-Methyl-2-(4′-nitro-biphenyl-4-sulfonylamino)-butyric acid]	7.00	–	–
O=C(O)[C@H](Cc1ccccc1)NS(=O)(=O)c1ccc2oc3ccccc3c2c1 [(L)-2-(Dibenzofuran-2-sulfonylamino)-3-phenyl-propionic acid]	6.14	6.05	–
O=C(O)CCC(=O)c1ccc(N2CCC(c3ccccc3)CC2)cc1 [4-Oxo-4-[4-(4-phenyl-piperidin-1-yl)-phenyl]-butyric acid]	6.85	5.89	–
O=C(CCc1ccccc1)N[C@@H](CC(=O)c1ccc2oc3ccccc3c2c1)C(=O)O [(S)-4-Dibenzofuran-2-yl-4-oxo-2-(3-phenyl-propionylamino)-butyric acid]	6.55	7.02	–
O=C(O)CNS(=O)(=O)c1ccc(N2CCC(c3ccccc3)CC2)cc1 [[4-(4-Phenyl-piperidin-1-yl)-benzenesulfonylamino]-acetic acid]	7.70	6.68	–
O=C(O)CCC(O)c1ccc(-c2ccc(Cl)cc2)cc1 (racemic) [(±)-4-(4′-Chloro-biphenyl-4-yl)-4-hydroxy-butyric acid]	6.55	6.82	–
CC(C)C[C@H](NS(=O)(=O)c1ccc2oc3ccccc3c2c1)C(=O)O [(L)-2-(Dibenzofuran-2-sulfonylamino)-4-methyl-pentanoic acid]	5.93	6.49	–
CC(=O)N[C@@H](CC(=O)c1ccc2oc3ccccc3c2c1)C(=O)O [(S)-2-Acetylamino-4-dibenzofuran-2-yl-4-oxo-butyric acid]	5.81	6.80	–
O=C(C[C@H](NC(=O)C(F)(F)F)C(=O)O)c1ccc2oc3ccccc3c2c1 [(S)-4-Dibenzofuran-2-yl-4-oxo-2-(2,2,2-trifluoroacetylamino)-butyric acid]	5.88	6.14	–
O=C(O)[C@H](CS)NS(=O)(=O)c1ccc2oc3ccccc3c2c1 [(L)-2-(Dibenzofuran-2-sulfonylamino)-3-mercapto-propionic acid]	6.16	5.35	–
O=C(Cc1ccccc1)N[C@@H](CC(=O)c1ccc2oc3ccccc3c2c1)C(=O)O [(S)-4-Dibenzofuran-2-yl-4-oxo-2-phenylacetylamino-butyric acid]	6.48	7.08	–
CC(C)[C@H](NS(=O)(=O)c1ccc2oc3ccccc3c2c1)C(=O)O [(L)-2-(Dibenzofuran-2-sulfonylamino)-3-methyl-butyric acid]	6.64	7.08	–
O=C(O)[C@H](CCc1ccccc1)NS(=O)(=O)c1ccc2oc3ccccc3c2c1 [(S)-2-(Dibenzofuran-2-sulfonylamino)-4-phenyl-butyric acid]	6.34	6.58	–
CN(C)N=C(CCC(=O)O)c1ccc(-c2ccc(Cl)cc2)cc1 [4-(4′-Chloro-biphenyl-4-yl)-4-(dimethylhydrazono)-butyric acid]	6.03	6.14	–
O=C(O)CCC(=NO)c1ccc(-c2ccc(Cl)cc2)cc1 [4-(4′-Chloro-biphenyl-4-yl)-4-hydroxyimino-butyric acid]	6.92	6.41	–
COc1ccc(N2CCN(c3ccc(S(=O)(=O)N[C@@H](Cc4ccccc4)C(=O)O)cc3)CC2)cc1 [(S)-2-{4-[-4-(4-Methoxy-phenyl)-piperazin-1-yl]-benzenesulfonylamino}-3-phenyl-propionic acid]	7.85	7.48	–
O=C(O)[C@H](CSC(c1ccccc1)(c1ccccc1)c1ccccc1)NS(=O)(=O)c1ccc2oc3ccccc3c2c1 [(L)-2-(Dibenzofuran-2-sulfonylamino)-3-tritylsulfanyl-propionic acid]	4.84	5.03	–
O=C(O)[C@H](Cc1ccccc1)NS(=O)(=O)c1ccc(N2CCC(Cc3ccccc3)CC2)cc1 [(S)-2-[4-(4-Benzyl-piperidin-1-yl)-benzenesulfonyl-amino]-3-phenyl-propionic acid]	7.68	7.06	–
O=C(CCC(=O)c1ccc(N2CCC(c3ccccc3)CC2)cc1)NO [N-Hydroxy-4-oxo-4-[4-(4-phenyl-piperidin-1-yl)-phenyl]-butyramide]	7.70	7.40	–
